The source of these data is patent US12297265B2, “Antibody and use thereof” (SICHUAN KELUN-BIOTECH BIOPHARMACEUTICAL CO., LTD., priority 2018, dated 2025).

Series [1] has as its system HEK293T-Claudin 18.2 cells. Kind of series: CDC killing of HEK293T-Claudin 18.2 cells (guinea pig serum, CCK8). It is filed as cell-based. Particulars: 20% guinea pig serum, 3 h. On the procedure:
The procedure is described as follows: HEK293T-Claudin 18.2 cells were harvested and centrifuged followed by adjustment of cell density. 5×10^4/well of cells were plated on a plate and incubated overnight. […] Starting from 20 μg/mL, 10 concentrations were prepared with two-fold dilution. The original cell culture media for HEK293T-Claudin 18.2 cells was removed, and the antibody dilutions were added to the corresponding wells, 100 μL/well. 10 μl/well lysis buffer was provided as the positive control. The reactions were left to stand in incubator at 37° C., 5% CO2 and incubated for 3 h. Then, CCK8 (Rhinogen, QDY-003-D) was added at 20 μl/well and allowed to react for 2h. Absorbance at 450 nm were taken on a plate reader (MD, SpectraMax M2). The results were subjected to curve fitting by Graphpad Prism.

Series [2] is described as follows: Pharmacokinetics in SCID mice. It counts as in vivo. The conditions noted are these: 10 mg/kg intravenously. On the procedure: Blood samples were taken 8 h, 1 d, 3 d, 8 d and 15 d after injection and serum antibody concentrations were determined by Cellular ELISA as described in Example 8. […] The data of mouse serum was subjected to curve fitting.

As for “IMAB362: Zolbetuximab (IMAB362) developed by Astellas, human-mouse chimeric IgG1 antibody targeting Claudin 18.2; control antibody, sequences from CN 101312989 B [reference compound]”, in series [1], the “maximal killing rate (CDC)” value is “about 70%”. For the same substance, in series [2], the area under the curve (AUC) (commonly the area under the concentration-time curve, a measure of exposure) was determined as 7391.22 µg·h/mL.
